Test results taken from patent US20240049706A1, “COMPOSITIONS AND METHODS FOR CONTROLLING INSECTS” (priority 2020, published 2024).

Assays:
[1] = 20 mg/mL; for percentage existing / remaining (not damaged) after autoxidation: 168 h; for percentage degraded by autoxidation: 7 days
Description: Results were reported as concentration of EO as function of time for each stability condition.

[2] = 7 days, 20 mg/mL
Description: One replicate of each EO per treatment was collected daily and tested for EO content. Results were reported as concentration of EO as function of time for each stability condition.

[3] = Loading (encapsulation) efficacy of essential oils into AgriCell, UV-Vis after ethanol extraction; assay type: physicochemical; settings: EO encapsulated into AgriCell; original concentration of EO 200 mg/mL
Description: After […] are purified, the concentrated […] paste or dry lyophilized powder is loaded with EOs. If dry, the […] are first homogenized into a finer powder through mechanical homogenization. A stock solution from each EO is prepared in ethanol at 100 mg/mL-200 mg/mL. Lyophilized […] would then be suspended in a solution with the EO solution at a ratio of 1 g of dry […] to 10 mL of EO solution. Once resuspended, the ethanol is allowed to evaporate overnight, leaving behind EO encapsulated […] in the process. After this overnight period, encapsulated […] are removed from the beaker, and the EO-encapsulated […] powder is mechanically homogenized. This encapsulated product is ready for resuspension in its appropriate medium.

Row | SMILES | percentage existing / remaining (not damaged) after autoxidation [1] [%] | percentage degraded by autoxidation [1] [%] | percentage of degradation (thermal) [2] [%] | encapsulation efficacy [3] [%]
1 | C=CCc1ccc(O)c(OC)c1 [free eugenol, Eugenol] | 17.3 | 82.7 | 82.7 | 95.5
2 | Cc1ccc(C(C)C)c(O)c1 [free thymol, thymol] | 44.2 | 55.8 | 79.1 | 91.8
